What was measured:
[1] = system: C57BL/6JRj male mice; experiment: Liver NAD+ in mice after oral gavage; assay type: in vivo; details: equimolar of 300 mg/kg trigonelline, 120 minutes, compared to the control (FIG. 5)
Protocol: 10 weeks C57BL/6JRj male mice received trigonelline (sigma #T5509) or fenugreek seed extract enriched in trigonelline (40.45% trigonelline) by oral gavage (equimolar of 300 mg/kg trigonelline, n=8/group). After 120 minutes treatment, the liver was harvested and flash frozen in liquid nitrogen. NAD+ was measured in liver using an enzymatic method adapted from Dall, M., et al., Mol Cell Endocrinol, 2018. 473: p. 245-256.

[2] = system: Human Skeletal Muscle Myotubes (HSMM); experiment: Colorimetric NAD+ quantification in differentiated human primary myoblasts; assay type: cell-based; details: 16 h, different doses, compared to the control (FIG. 4)
Protocol: After one day, the differentiation is induced by a medium change for 4 days. Cells were treated with synthetic trigonelline monohydrate (FIG. 4A) or with Fenugreek seed extract enriched in trigonelline containing 40.45% trigonelline (FIG. 4B) for 16 h at difference doses. NAD+ was measured using colorimetric NAD+ quantification assay (Biovision NAD+/NADH Quantitation Colorimetric Kit #k337-100).

[3] = system: Human Skeletal Muscle Myotubes (HSMM); details: 6 h
Protocol: Human primary myoblasts from two different donors were seeded in 6 well plates at a density of 200′000 cells per well in skeletal muscle growth medium (SKM-M, AMSbio). After one day, the differentiation was induced by a medium change for 4 days using differentiation culture medium (Gibco No. 31330-028). Cells were treated with isotopically labelled trigonelline (^13C carbonyl; 3^2H on methyl) for 6 h.
Cell extracts were separated on a Vanquish UHPLC+ focused LC system (Thermo Scientific) with a hydrophilic liquid chromatography (HILIC) iHILIC-Fusion(P) column (Hilicon) carrying the dimensions 150×2.1 mm, 5 μm and a guard column (iHILIC-fusion(P), Hilicon) in front. The separation of metabolites was achieved by applying a linear solvent gradient in normal phase at 0.25 mL/min flow rate and 35° C. of temperature. As mobile phase, solvent A was water with 10 mM ammonium acetate and 0.04% (v/v) ammonium hydroxide, pH ˜9.3, and solvent B was acetonitrile.
The eluting metabolites were analyzed with an Orbitrap Fusion Lumos mass spectrometer (Thermo Scientific) with a heated electrospray ionization (H-ESI) source in positive and negative mode at a resolution of 60,000 at m/z of 200. Instrument control and data analysis were conducted using Xcalibur (Thermo Scientific).

[4] = system: C. elegans; details: 1 mM, day 8 and day 11 old worms (FIG. 7D)
Excerpt: 45 to 60 worms per condition were manually scored for mobility after poking. Worms that were unable to respond to any repeated stimulation were scored as dead. […] Trigonelline treatment and experimental measurements were started at Day 1 of wild type N2 worm adulthood, in a regimen of chronic exposure til experiments termination.

[5] = system: C. elegans; details: 1 mM
Protocol: C. elegans mobility test was performed using the Movement Tracker software (Mouchiroud, L. et al. Curr Protoc Neurosci 77, 8.37.1-8.37.21 (2016)). The experiments were repeated at least twice. Trigonelline treatment and experimental measurements were started at Day 1 of wild type N2 worm adulthood, in a regimen of chronic exposure till experiments termination.

[6] = system: C. elegans; details: 1 mM, chronic exposure from Day 1 adulthood (FIG. 7A)
Protocol: Worm lifespan tests were performed using about 100 animals per condition and scored manually every other day. Trigonelline treatment and experimental measurements were started at Day 1 of wild type N2 worm adulthood, in a regimen of chronic exposure till experiments termination.

[7] = system: RW1596 (myo-3p::GFP) worms; details: 1 mM trigonelline chloride, 11 day old worms vs age matched control
Protocol: RW1596 (myo-3p::GFP) worms were collected at Day 1 (young adults) and at Day 11 (aged animals) for muscle integrity assessment. Worms were immobilized with tetramisole and analyzed by confocal microscopy, to assess the muscle fibers morphology shown by GFP fluorescence imaging. Trigonelline treatment with 1 mM trigonelline chloride and experimental measurements were started at Day 1 of wild type N2 worm adulthood, in a regimen of chronic exposure till experiments termination.

[8] = system: wild type N2 worms; details: 1 mM trigonelline chloride, day 8 old worms (FIG. 8)
Protocol: Absolute quantification of the mtDNA copy number in wild type N2 worms was performed by real-time PCR. Relative values for nduo-1, and act-1 were compared within each sample to generate a ratio representing the relative level of mitochondrial DNA per nuclear genome. The average of at least two technical repeats was used for each biological data point. Each experiment was performed on at least ten independent biological samples (individual worms). Trigonelline treatment with 1 mM trigonelline chloride and experimental measurements were started at Day 1 of wild type N2 worm adulthood, in a regimen of chronic exposure till experiments termination.

SMILES: C[n+]1cccc(C(=O)O)c1.[OH-] [chemically synthesized trigonelline]
- NAD+ content in the liver [1]: significant increase
- NAD+ content [2]: significant increase

SMILES: [2H]C([2H])([2H])[n+]1cccc([13C](=O)[O-])c1 [labelled trigonelline]
- relative abundance of labelled NAD+ (M+ 1) ([3]; labelled trigonelline 500 μm, vs naturally occurring NAD+ control (FIG. 2B)): increase in relative abundance of labelled NAD+ (M+ 1)

SMILES: C[n+]1cccc(C(=O)O)c1 [trigonelline chloride]
- stimulated mobility score (percentage of worms responsive to a physical stimulus) [4]: more responsive to a physical stimulus than the control
- distance travelled during spontaneous mobility assay ([5]; advanced aging phase, compared to control (FIG. 7C)): significantly increased
- mean speed during spontaneous mobility assay ([5]; from day 1 adulthood, compared to control (FIG. 7B)): increased the mean speed
- lifespan increase [6]: 21%

SMILES: C[n+]1cccc(C(=O)[O-])c1 [trigonelline, 1-methylpyridin-1-ium-3-carboxylate]
- myofibrillar structure (GFP-tagged myosin) [7]: improved more organized myofibrillar structure
- NAD+ relative concentration ([3]; 500 μm, HSMM from 2 donors, LC-MS, relative to control (FIG. 2A)): enhancement of NAD+
- mitochondrial (nduo-1) relative to nuclear (act-1) DNA ratio [8]: higher than in the control group

From patent US20220241259A1, “COMPOSITIONS AND METHODS USING TRIGONELLINE AND VITAMINS FOR PREVENTING OR TREATING CONDITIONS OR DISORDERS IN SKELETAL MUSCLE” (SOCIETE DES PRODUITS NESTLE S.A., priority 2019, published 2022)
